Source: PMC11694061 (Cancer Research, 2024)
Read-outs that look alike come from different tables or passages of the source.

Tests used:
[1] = molecular target: T1, SOS1 in K562 cells (Homo sapiens, UniProt Q07889); experiment: SOS1 degradation in K562 cells (Western blot); format: cell-based
T1 construct: endogenous in cells; host or cells: K562
T1 sequence (Q07889 1-1333): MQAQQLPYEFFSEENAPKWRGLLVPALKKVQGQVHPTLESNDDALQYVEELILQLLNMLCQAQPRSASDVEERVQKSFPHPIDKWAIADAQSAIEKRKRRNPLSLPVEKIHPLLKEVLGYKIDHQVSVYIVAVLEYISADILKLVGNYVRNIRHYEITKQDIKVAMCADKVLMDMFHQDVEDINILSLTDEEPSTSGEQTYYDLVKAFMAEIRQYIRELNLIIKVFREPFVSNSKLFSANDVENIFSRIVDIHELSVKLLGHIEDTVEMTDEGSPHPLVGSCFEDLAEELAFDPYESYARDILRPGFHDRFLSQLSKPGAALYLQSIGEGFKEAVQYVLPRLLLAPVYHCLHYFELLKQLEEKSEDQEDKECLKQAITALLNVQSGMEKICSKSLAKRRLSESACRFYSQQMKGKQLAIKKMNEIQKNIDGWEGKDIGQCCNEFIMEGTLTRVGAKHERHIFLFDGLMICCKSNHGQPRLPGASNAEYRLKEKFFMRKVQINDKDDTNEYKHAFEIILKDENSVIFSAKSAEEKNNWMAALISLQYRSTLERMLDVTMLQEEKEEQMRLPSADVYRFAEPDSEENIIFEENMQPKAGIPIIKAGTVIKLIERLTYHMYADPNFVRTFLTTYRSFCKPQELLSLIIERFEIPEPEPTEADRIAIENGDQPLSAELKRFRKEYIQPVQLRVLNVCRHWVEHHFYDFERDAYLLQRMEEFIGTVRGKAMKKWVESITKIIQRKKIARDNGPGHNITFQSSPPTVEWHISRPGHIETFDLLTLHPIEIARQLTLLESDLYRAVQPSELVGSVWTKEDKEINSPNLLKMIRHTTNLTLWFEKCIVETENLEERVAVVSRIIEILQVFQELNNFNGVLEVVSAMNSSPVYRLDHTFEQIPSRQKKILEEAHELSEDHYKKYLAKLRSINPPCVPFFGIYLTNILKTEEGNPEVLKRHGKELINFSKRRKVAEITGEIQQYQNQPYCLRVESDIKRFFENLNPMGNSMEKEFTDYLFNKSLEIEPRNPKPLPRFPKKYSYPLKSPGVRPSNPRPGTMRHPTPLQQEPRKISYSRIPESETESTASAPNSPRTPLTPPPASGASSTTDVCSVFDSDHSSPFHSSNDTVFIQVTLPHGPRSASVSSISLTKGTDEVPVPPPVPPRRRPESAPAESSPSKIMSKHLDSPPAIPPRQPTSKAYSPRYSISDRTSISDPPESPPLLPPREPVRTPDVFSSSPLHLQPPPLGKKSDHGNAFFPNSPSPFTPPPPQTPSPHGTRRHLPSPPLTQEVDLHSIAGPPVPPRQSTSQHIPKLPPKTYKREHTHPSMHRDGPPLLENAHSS
Description: After treatment, the cells were harvested with SDS lysis buffer, and SDS-PAGE gels were used to split the proteins in the lysate solutions. […] AB_2758039).

[2] = test system: K562 cells; experiment: Proliferation, K562; format: cell-based, human; settings: Table S1 screening, read-out: IC50 (cell proliferation inhibition in K562 cells)
Description: Cells were inoculated onto 96-well plates and treated with compounds in serial dilutions for 3 or 5 days. […] The cell viability of primary patient samples was tested using the CellTiter-Glo Luminescent Assay kit (G7573, Promega) according to the manufacturer’s instructions. […] The optical density (OD) values were obtained using a SPARK microplate reader (Tecan). IC50 was calculated using GraphPad Prism 8.0.2 (nonlinear regression analysis with four parameters). Drug synergy was evaluated with combination index (CI) values using CalcuSyn Demo Version 2.0 software. CI > 1 indicates antagonism, CI < 1 indicates synergy, and CI = 1 indicates additivity.

| Structure (SMILES) | Degradation of SOS1 (%) ([1]; 0.1 μM) | Degradation of SOS1 (%) ([1]; 1.0 μM) | IC50 [2] | percent SOS1 degradation at 0.1 µM ([1]; 0.1 μM) | percent SOS1 degradation at 1 µM ([1]; 1.0 μM) | IC50 ([2]; Homo sapiens, K562) |
| --- | --- | --- | --- | --- | --- | --- |
| COc1cc2nc(C)nc(N[C@H](C)c3cc(N)cc(C(F)(F)F)c3)c2cc1O[C@H]1CCN(CCCSc2cccc3c2CN(C2CCC(=O)NC2=O)C3=O)C1 (stereo partly drawn) [SIAIS561084] | 7.3 ± 8.5% | -19.5 ± 2.2% | 1.31 ± 0.176 µM | – | – | – |
| COc1cc2nc(C)nc(N[C@H](C)c3cc(N)cc(C(F)(F)F)c3)c2cc1O[C@H]1CCN(C(=O)CCCCSc2cccc3c2CN(C2CCC(=O)NC2=O)C3=O)C1 (stereo partly drawn) [SIAIS561086] | – | – | – | 22.7 ± 1.7% | 33.5 ± 4.7% | 7.69 ± 0.0912 µM |
| COc1cc2nc(C)nc(N[C@H](C)c3cc(N)cc(C(F)(F)F)c3)c2cc1O[C@H]1CCN(C(=O)CCCCCSc2cccc3c2CN(C2CCC(=O)NC2=O)C3=O)C1 (stereo partly drawn) [SIAIS561087] | – | – | – | 53.5 ± 0.6% | 39.9 ± 0.9% | 6.51 ± 0.514 µM |
| COc1cc2nc(C)nc(N[C@H](C)c3cc(N)cc(C(F)(F)F)c3)c2cc1O[C@H]1CCN(CCSc2cccc3c2CN(C2CCC(=O)NC2=O)C3=O)C1 (stereo partly drawn) [SIAIS561091] | 36.2 ± 5.7% | 27.0 ± 7.5% | 1.2 ± 0.0658 µM | – | – | – |
| COc1cc2nc(C)nc(N[C@H](C)c3cc(N)cc(C(F)(F)F)c3)c2cc1O[C@H]1CCN(C(=O)CSc2cccc3c2CN(C2CCC(=O)NC2=O)C3=O)C1 (stereo partly drawn) [SIAIS561092] | – | – | – | -26.5 ± 8.3% | 8.1 ± 2.3% | 7.29 ± 1.01 µM |
| COc1cc2nc(C)nc(N[C@H](C)c3cc(N)cc(C(F)(F)F)c3)c2cc1O[C@H]1CCN(C(=O)CCSc2cccc3c2CN(C2CCC(=O)NC2=O)C3=O)C1 (stereo partly drawn) [SIAIS561093] | – | – | – | 19.9 ± 1.8% | 24.7 ± 4.4% | 16.4 ± 2.44 µM |
| COc1cc2nc(C)nc(N[C@H](C)c3cc(N)cc(C(F)(F)F)c3)c2cc1O[C@H]1CCN(C(=O)CCCSc2cccc3c2CN(C2CCC(=O)NC2=O)C3=O)C1 (stereo partly drawn) [SIAIS561094] | – | – | – | 32.9 ± 0.4% | 35.3 ± 0.6% | 7.13 ± 0.224 µM |
| COc1cc2nc(C)nc(N[C@H](C)c3cc(N)cc(C(F)(F)F)c3)c2cc1O[C@H]1CCN(C(=O)CCCCCCSc2cccc3c2CN(C2CCC(=O)NC2=O)C3=O)C1 (stereo partly drawn) [SIAIS561095] | – | – | – | 26.7 ± 3% | 3.9 ± 4.7% | 5.23 ± 1.39 µM |
| COc1cc2nc(C)nc(N[C@H](C)c3cc(N)cc(C(F)(F)F)c3)c2cc1O[C@H]1CCN(C(=O)CCCCCCCSc2cccc3c2CN(C2CCC(=O)NC2=O)C3=O)C1 (stereo partly drawn) [SIAIS561096] | – | – | – | 57.2 ± 0.7% | 49.7 ± 0.9% | 1.55 ± 0.0714 µM |
| COc1cc2nc(C)nc(N[C@H](C)c3cc(N)cc(C(F)(F)F)c3)c2cc1O[C@H]1CCN(C(=O)CCCCCCCCCSc2cccc3c2CN(C2CCC(=O)NC2=O)C3=O)C1 (stereo partly drawn) [SIAIS561097] | – | – | – | -10.2 ± 5.5% | -20.9 ± 9% | 15.1 ± 2.04 µM |
| COc1cc2nc(C)nc(N[C@H](C)c3cc(N)cc(C(F)(F)F)c3)c2cc1O[C@H]1CCN(C(=O)CCCCCCCCCCSc2cccc3c2CN(C2CCC(=O)NC2=O)C3=O)C1 (stereo partly drawn) [SIAIS561098] | – | – | – | 1.1 ± 1% | 17 ± 2.2% | 11.5 ± 0.515 µM |
| COc1cc2nc(C)nc(N[C@H](C)c3cc(N)cc(C(F)(F)F)c3)c2cc1OC1CCN(C(=O)CSc2cccc3c2CN(C2CCC(=O)NC2=O)C3=O)CC1 (stereo partly drawn) [SIAIS561131] | – | – | – | 12.3 ± 6.5% | -2.3 ± 9.5% | 17.8 ± 3.9 µM |
| COc1cc2nc(C)nc(N[C@H](C)c3cc(N)cc(C(F)(F)F)c3)c2cc1OC1CCN(C(=O)CCSc2cccc3c2CN(C2CCC(=O)NC2=O)C3=O)CC1 (stereo partly drawn) [SIAIS561132] | – | – | – | -14.7 ± 10.2% | -3.8 ± 4.2% | 0.112 ± 0.0042 µM |
| COc1cc2nc(C)nc(N[C@H](C)c3cc(N)cc(C(F)(F)F)c3)c2cc1OC1CCN(C(=O)CCCSc2cccc3c2CN(C2CCC(=O)NC2=O)C3=O)CC1 (stereo partly drawn) [SIAIS561133] | – | – | – | -26.7 ± 1.7% | -4 ± 11.7% | 1.67 ± 0.0177 µM |
| COc1cc2nc(C)nc(N[C@H](C)c3cc(N)cc(C(F)(F)F)c3)c2cc1OC1CCN(C(=O)CCCCSc2cccc3c2CN(C2CCC(=O)NC2=O)C3=O)CC1 (stereo partly drawn) [SIAIS561134] | – | – | – | 5.2 ± 12.8% | 14.2 ± 11.1% | 3.6 ± 0.103 µM |
| COc1cc2nc(C)nc(N[C@H](C)c3cc(N)cc(C(F)(F)F)c3)c2cc1OC1CCN(C(=O)CCCCCSc2cccc3c2CN(C2CCC(=O)NC2=O)C3=O)CC1 (stereo partly drawn) [SIAIS561135] | – | – | – | 11.3 ± 4.8% | 12.7 ± 6.3% | 1.85 ± 0.455 µM |
| COc1cc2nc(C)nc(N[C@H](C)c3cc(N)cc(C(F)(F)F)c3)c2cc1OC1CCN(C(=O)CCCCCCSc2cccc3c2CN(C2CCC(=O)NC2=O)C3=O)CC1 (stereo partly drawn) [SIAIS561136] | – | – | – | 18.2 ± 6.2% | 49.3 ± 2.2% | 2.53 ± 0.261 µM |
| COc1cc2nc(C)nc(N[C@H](C)c3cc(N)cc(C(F)(F)F)c3)c2cc1OC1CCN(C(=O)CCCCCCCCCSc2cccc3c2CN(C2CCC(=O)NC2=O)C3=O)CC1 (stereo partly drawn) [SIAIS561137] | – | – | – | 3.6 ± 3.2% | 15.7 ± 3% | 3.06 ± 1.1 µM |
| COc1cc2nc(C)nc(N[C@H](C)c3cc(N)cc(C(F)(F)F)c3)c2cc1OC1CCN(C(=O)CCCCCCCCCCSc2cccc3c2CN(C2CCC(=O)NC2=O)C3=O)CC1 (stereo partly drawn) [SIAIS561138] | – | – | – | -14.6 ± 1.1% | 11 ± 0.6% | 8.97 ± 0.146 µM |
| COc1cc2nc(C)nc(N[C@H](C)c3cc(N)cc(C(F)(F)F)c3)c2cc1OC1CCN(C(=O)CCCCCCCSc2cccc3c2CN(C2CCC(=O)NC2=O)C3=O)CC1 (stereo partly drawn) [SIAIS561139] | – | – | – | -15.2 ± 2% | 7.7 ± 4.3% | 2.75 ± 0.36 µM |
| COc1cc2nc(C)nc(N[C@H](C)c3cc(N)cc(C(F)(F)F)c3)c2cc1O[C@H]1CCN(CCCCCCCCCCCSc2cccc3c2CN(C2CCC(=O)NC2=O)C3=O)C1 (stereo partly drawn) [SIAIS562019] | – | – | – | 4.6 ± 1.8% | 38.7 ± 1.1% | 0.846 ± 0.157 µM |
| COc1cc2nc(C)nc(N[C@H](C)c3cc(N)cc(C(F)(F)F)c3)c2cc1O[C@H]1CCN(CCCCCCCCCCCCSc2cccc3c2CN(C2CCC(=O)NC2=O)C3=O)C1 (stereo partly drawn) [SIAIS562020] | – | – | – | 30.4 ± 0.3% | 86.4 ± 0.4% | 0.822 ± 0.083 µM |
| COc1cc2nc(C)nc(N[C@H](C)c3cc(N)cc(C(F)(F)F)c3)c2cc1O[C@H]1CCN(C(=O)CCCCCCCCSc2cccc3c2CN(C2CCC(=O)NC2=O)C3=O)C1 (stereo partly drawn) [SIAIS562079] | – | – | – | 44.4 ± 6.5% | 49.7 ± 14% | 7.08 ± 0.216 µM |
